Laboratory results from patent US5861424A, “Composition and method for treating cancer” (priority 1995, dated 1999).
Where two headings read alike, the source gives them in different places.

Legend:
[1] = tested on: human pancreatic carcinoma CRL 1420 cell line; experiment: Colony formation assay, human pancreatic carcinoma CRL 1420; type: cell-based; conditions: Table VII; for IC50: Homo sapiens, 24 h; for Selectivity (CV-1 IC50 / CRL-1420 IC50): CV-1/CRL-1420
Excerpt: (§1) The control received culture media only.
The Selectivity values, CRL 1420 values and CV-1 values for compounds of the General Formulas (1) to (6) used in the present invention are shown in Table VII below.

[2] = tested on: human breast carcinoma MCF-7 cell line; experiment: Colony formation assay, human breast carcinoma MCF-7; type: cell-based; conditions: for IC50: Homo sapiens, MCF7, 24 h, read-out: MCF-7 (IC50); for Selectivity (CV-1 IC50 / MCF-7 IC50): CV-1/MCF-7
Excerpt: as §1
The Selectivity values, MCF-7 values and CV-1 values for compounds of the General Formulas (1) to (6) used in the present invention are shown in Table VI below.

[3] = tested on: human melanoma LOX cell line; experiment: Colony formation assay, human melanoma LOX; type: cell-based; conditions: for IC50: Homo sapiens, LOX, 24 h, read-out: LOX (IC50); for Selectivity (CV-1 IC50 / LOX IC50): CV-1/LOX
Excerpt: as §1

[4] = tested on: human colon carcinoma cell line CX-1; experiment: Colony formation assay, human colon carcinoma CX-1; type: cell-based; conditions: for IC50: Homo sapiens, Colon carcinoma cell; for IC50 / CX-1 (IC50): 24 h treatment, colony count after 7 to 10 days; for Selectivity (ratio of IC50 for CV-1 and IC50 for CX-1): CV-1/CX-1
Method: (§2) Human colon carcinoma cell line CX-1 or normal monkey kidney epithelial cell line CV-1 was chosen as representatives of cancer cells and normal cells, respectively. […] CX-1 cells (2,000 cells/well) and CV-1 cells (1,000 cells/well) were plated in 24-well plastic culture plates. […] The control received culture media only. Cells were treated with compounds of General Formulas (1) to (6) at 37° C. for 24 hours. After rinsing with fresh culture medium three times, the cells were further incubated at 37° C. for 7 to 10 days. Cell colonies were fixed and stained with 2% crystal violet in 70% ethanol for 10 minutes and rinsed in water. […] The selectivity is defined as the ratio of IC50 for CV-1 and IC50 for CX-1.

[5] = tested on: normal monkey kidney epithelial cell line CV-1; experiment: Colony formation assay, normal monkey kidney epithelial cells CV-1; conditions: for IC50: Primates, Epithelial cell;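 for all read-outs here: colonies visualized by crystal violet staining, incubation at 37 °C, IC50 relative to untreated wells given culture medium alone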
Method: as §2

[6] = tested on: human bladder carcinoma EJ cell line; experiment: Colony formation assay, human bladder carcinoma EJ; type: cell-based; conditions: for IC50: Homo sapiens, EJ, 24 h, read-out: EJ (IC50); for Selectivity (CV-1 IC50 / EJ IC50): CV-1/EJ
Excerpt: as §1

[7] = Table III, read-out: CX-1 (IC50)
[8] = read-out: CV-1 (IC50), Table IV
[9] = read-out: CV-1 (IC50), Table VI
[10] = read-out: CV-1 (IC50), Table VII
[11] = read-out: CV-1 (IC50), Table III, 24 h treatment, colony count after 7 to 10 days
[12] = read-out: CX-1 (IC50), Table III

Row | Compound | IC50 ([1]; 24 h treatment) [µg/mL] | Selectivity (CV-1 IC50 / CRL-1420 IC50) [1] | Selectivity (CV-1 IC50 / MCF-7 IC50) ([2]; Table VI) | IC50 ([3]; Table V, 24 h treatment) [µg/mL] | Selectivity (CV-1 IC50 / LOX IC50) ([3]; Table V) | IC50 [4, 7] [µg/mL] | Selectivity (ratio of IC50 for CV-1 and IC50 for CX-1) ([4]; Table III) | IC50 [5, 8] [µg/mL] | IC50 ([5]; read-out: CV-1 (IC50), Table V) [µg/mL] | IC50 [5, 10] [µg/mL] | IC50 ([6]; Table IV, 24 h treatment) [µg/mL] | Selectivity (CV-1 IC50 / EJ IC50) ([6]; Table IV) | IC50 [5, 11] [µg/mL] | further results
1 | CCN1CCSC1=CC=c1sc(=Cc2sc3ccc(OC)cc3[n+]2CC)n(CC)c1=O [Compound 125] | 0.05 | 160 | 133 | 0.06 | 133 | 0.04 | 200 | 8 | 8 | 8 | 0.06 | 133 |  | IC50 ([2]; Table VI, 24 h treatment): 0.06 µg/mL; IC50 [5, 9]: 8 µg/mL
2 | CCn1c(=Cc2sc3ccccc3[n+]2CC)sc(=CC=C2N(C)c3ccccc3C2(C)C)c1=O [Compound 206] | 0.03 | 196 | 125 | 0.03 | 196 | 0.01 | 600 | 6 | 6 | 6 | 0.013 | 462 | 6 | IC50 ([2]; Table VI, 24 h treatment): 0.048 µg/mL; IC50 [5, 9]: 6 µg/mL
3 | CCN1CCSC1=CC=c1sc(=Cc2sc3ccc(Cl)cc3[n+]2CC)n(CC)c1=O [Compound 123] | 0.13 | 154 |  |  |  |  | 200 | 20 |  | 20 | 0.13 | 154 | 20 | IC50 [4, 12]: 0.1 µg/mL
4 | CCN1C(=CC=c2sc(=Cc3ccc4ccccc4[n+]3CC)n(CC)c2=O)Sc2ccc3ccccc3c21 [Compound 40] | 0.05 |  |  |  |  | 0.02 | 257 |  |  | 2 |  |  | 5.14 | 
5 | CCN1C(C)=CSC1=CC=c1sc(=Cc2sc3c4ccccc4ccc3[n+]2CC)n(CC)c1=O [Compound 97] |  |  |  |  | 133 | 0.01 | 200 | 2 | 2 |  | 0.013 | 154 | 2 | IC50 [3]: 0.015 µg/mL
6 | CCN1C(=CC=c2sc(=Cc3sc4ccc5ccccc5c4[n+]3CC)n(CC)c2=O)N(CC)c2ccccc21 [Compound 234] | 0.03 | 333 | 200 | 0.03 | 333 |  | 333 |  |  |  |  |  |  | IC50 ([2]; Table VI, 24 h treatment): 0.05 µg/mL; IC50 [4, 12]: 0.03 µg/mL; IC50 ([5]; read-out: CV-1 (IC50)): 10 µg/mL
7 | CCN1CCSC1=CC=c1sc(=Cc2sc3ccc(C)cc3[n+]2CC)n(CC)c1=O [Compound 124] | 0.04 | 125 |  | 0.04 | 125 |  | 167 | 5 | 5 | 5 | 0.05 | 100 | 5 | IC50 [4, 12]: 0.03 µg/mL
8 | CCN1C(=CC=c2sc(=Cc3sc4ccccc4[n+]3CC)n(CC)c2=O)Sc2ccc3ccccc3c21 [Compound 178] |  | 154 | 435 |  |  |  | 200 |  |  |  |  |  |  | CRL-1420 (IC50) ([1]; 24 h treatment): 0.013 µg/mL; MCF-7 (IC50) ([2]; Table VI, 24 h treatment): 0.0046 µg/mL; CX-1 (IC50) ([4]; Table III): 0.01 µg/mL; CV-1 (IC50) ([5]; Table III, 24 h treatment, colony count after 7 to 10 days): 2 µg/mL; CV-1 (IC50) ([5]; Table VI): 2 µg/mL; CV-1 (IC50) ([5]; Table VII): 2 µg/mL
9 | CCN1C=CC=CC1=CC=c1sc(=Cc2sc3ccc4ccccc4c3[n+]2CC)n(CC)c1=O [Compound 278] | 0.04 | 250 | 111 | 0.035 | 286 |  | 333 |  |  |  |  |  |  | IC50 [2]: 0.09 µg/mL; CX-1 (IC50) ([4]; Table III): 0.03 µg/mL; IC50 ([5]; read-out: CV-1 (IC50)): 10 µg/mL
10 | CCN1C(=CC=c2sc(=Cc3sc4c5ccccc5ccc4[n+]3CC)n(CC)c2=O)N(CC)c2cc(Cl)ccc21 [Compound 235] |  |  |  |  |  | 0.05 | > 400 |  |  |  |  | 500 | > 20 | IC50 ([5]; read-out: CV-1 (IC50)): 10 µg/mL; IC50 [6]: 0.02 µg/mL
11 | CCn1c(=Cc2sc3ccccc3[n+]2CC)sc(=CC=C2SCCN2C)c1=O [Compound 141] | 0.045 | 444 | 109 | 0.064 | 312 | 0.05 | 400 |  | 20 | 20 |  |  | 20 | IC50 ([2]; Table VI, 24 h treatment): 0.184 µg/mL; IC50 [5, 9]: 20 µg/mL
12 | CCn1c(=Cc2oc3c4ccccc4ccc3[n+]2CC)sc(=CC=C2N(C)c3ccccc3C2(C)C)c1=O [Compound 208] |  |  |  | 0.039 | 154 | 0.01 | 600 |  | 6 |  |  |  | 6 | 
13 | CCOc1cc2c(cc1C)sc(C=c1sc(=CC=C3N(C)c4ccccc4C3(C)C)c(=O)n1CC)[n+]2CC [Compound 209] |  |  |  |  |  | 0.01 | 100 |  |  |  |  |  | 1 | 
14 | CCn1c(=Cc2sc3ccc(Cl)cc3[n+]2CC)sc(=CC=C2N(C)c3ccccc3C2(C)C)c1=O [Compound 214] | 0.04 | 200 |  | 0.04 | 200 |  | 267 | 8 | 8 | 8 | 0.04 | 200 |  | IC50 [4, 12]: 0.03 µg/mL
